Test results from patent US11654183B2 (INTARCIA THERAPEUTICS, INC., priority 2017, dated 2023).
Where two headings read alike, the source gives them in different places.

Tests used:
[1] = human, in vivo, po
Procedure: APAP, a marker of gastric emptying, was administered on Day (D)1 followed by the cocktail on D2. […] APAP was administered again on D27 and the cocktail on D28.

[2] = cited from earlier work
[3] = Crossover study of ITCA 650 on steady-state PK and PD of the combination oral contraceptive Levora; conditions: ITCA 650 60 mcg/day, healthy premenopausal women
Procedure: Twenty-eight (28) healthy premenopausal women on a stable regimen of an OC participated in a randomized, double-blind, placebo-controlled, 2-period crossover study. […] The study included a 2-week run-in on Levora and 2 treatment periods of 28 days each. […] Subjects were crossed over to the alternative treatment and procedures were repeated in Period 2. The OC was administered daily through D28 of each period.

[4] = compared to OC alone, cited from earlier work; for decrease of Cmax: repeated daily doses of OC given 30 minutes after BYETTA (10 mcg BID), healthy female subjects; for decrease of mean Cmax: repeated daily doses of OC one hour prior to BYETTA
[5] = 1000 mg acetaminophen elixir given 1 hour after 10 mcg BYETTA injection
[6] = 1000 mg acetaminophen elixir given 2 hours after 10 mcg BYETTA injection
[7] = 1000 mg acetaminophen elixir given 4 hours after 10 mcg BYETTA injection
[8] = 1000 mg acetaminophen elixir given with 10 mcg BYETTA (0 h)
[9] = acetaminophen given 1 hour before BYETTA injection

effect of ITCA 650 on PK of the co-administered drug [1]	effect of ITCA 650 on PK [3]	SMILES	Tmax [2, 5]	decrease of Cmax [2, 5]	decrease of acetaminophen AUC [2, 5]	Tmax [2, 6]	decrease of Cmax [2, 6]	decrease of acetaminophen AUC [2, 6]	Tmax [2, 7]	decrease of Cmax [2, 7]	decrease of acetaminophen AUC [2, 7]	Tmax [2, 8]	decrease of Cmax [2, 8]	decrease of acetaminophen AUC [2, 8]	AUC change [2, 9]	Cmax change [2, 9]	Tmax change [2, 9]	Tmax ([2]; control period (without BYETTA))	decrease of Cmax [4]	decrease of mean Cmax [4]
minimal effect		CC(=O)Nc1ccc(O)cc1 [acetaminophen]	4.2 h	56%	23%	3.3 h	54%	24%	1.6 h	41%	14%	0.9 h	37%	21%	not significantly changed	not significantly changed	not significantly changed	0.6 h		
	No effect	C#C[C@]1(O)CC[C@H]2[C@@H]3CCC4=CC(=O)CC[C@@H]4[C@H]3CC[C@@]21CC [levonorgestrel]																	27%	not significantly changed
		C#C[C@]1(O)CC[C@H]2[C@@H]3CCc4cc(O)ccc4[C@H]3CC[C@@]21C [ethinyl estradiol]																	45%	15%
